Reference: patent US6458817B1, “Substituted arylsulfides, arylsulfoxides and arylsulfones as beta-3 adrenergic receptor agonists” (Wyeth, priority 2000, dated 2002)

Legend:
[1] = biological target: T1, human β3 adrenergic receptor (Homo sapiens, UniProt P13945); assay: cAMP accumulation (SPA) in CHO cells transfected with human β3 adrenergic receptor; type: cell-based; conditions: for EC50: CHO cells expressing human β3-AR, cAMP by SPA, 30 min incubation, 10^-9M to 10^-5M; for IA(β3): maximal response relative to isoproterenol at 10^-5M (IA=% activity compound/% activity isoproterenol)
T1 construct: Full length β3 AR clones (402 amino acids) containing the last 6 amino acids of hβ3—AR are prepared; expressed in transfected cells; host or cells: CHO cells
T1 sequence (P13945 whole entry): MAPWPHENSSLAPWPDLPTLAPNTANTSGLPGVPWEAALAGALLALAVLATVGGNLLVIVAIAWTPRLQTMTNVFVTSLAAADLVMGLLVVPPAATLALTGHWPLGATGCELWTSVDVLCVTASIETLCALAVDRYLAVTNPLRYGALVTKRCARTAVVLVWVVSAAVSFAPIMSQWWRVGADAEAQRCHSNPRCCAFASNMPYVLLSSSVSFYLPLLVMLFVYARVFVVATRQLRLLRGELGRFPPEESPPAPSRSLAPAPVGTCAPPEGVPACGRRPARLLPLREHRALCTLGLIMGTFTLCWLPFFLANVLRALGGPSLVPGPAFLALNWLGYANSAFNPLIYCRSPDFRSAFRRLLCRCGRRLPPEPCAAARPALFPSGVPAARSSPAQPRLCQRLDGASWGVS
Procedure: The ability of compounds of this invention to treat or inhibit disorders related to insulin resistance or hyperglycemia was established with representative compounds of this invention in the following standard pharmacological test procedures, which measured the binding selectivity to the β1, β2, and β3 adrenergic receptors. Binding to the receptors was measured in Chinese Hamster ovary (CHO) cells that were transfected with adrenergic receptors. The following briefly summarizes the procedures used and results obtained.
Cloning of Human β3-AR Genomic DNA: cDNA was constructed by ligating four polymerase chain reaction (PCR) products using the following primers: an ATG-Narl fragment, sense primer 5′-[…]3′ and anti-sense primer 5′[…]3′; a Narl-Accl fragment, 5′[…]3′ as sense and 5′[…]3′ as anti-sense primer; an Accli-Styl fragment, sense primer 5′[…]3′ and anti-sense primer 5′[…]3′ and a Styl-TAG fragment, with sense primer 5′[…]3′ and anti-sense primer 5′[…]3′. The corresponding primer sequences are described in Mantzoros, C. S., et. al., Diabetes 45: 909-914 (1996). The four fragments are ligated into a pUC 18 plasmid (Gibco-BRL) and sequenced. Full length β3 AR clones (402 amino acids) containing the last 6 amino acids of hβ3—AR are prepared with the β3-βARpcDNA3 from ATTC.
Binding Procedure: Clones expressing receptor levels of 70 to 110 fmoles/mg protein were used in the test procedures. CHO cells were grown in 24-well tissue culture plates in Dulbecco's Modified Eagle Media with 10% fetal bovine serum, MEM non-essential amino acids, Penicillin-Streptompycin and Geneticin. On the day of test procedure, growth medium was replaced with preincubation media (Dulbecco's Modified Eagle Media and incubated for 30 minutes at 37° C. Preincubation medium was replaced with 0.2 ml treatment medium containing DMEM media containing 250 μM IBMX (isobutyl-1-methylxantine) plus 1 mM ascorbic acid with test compound dissolved in DMSO. Test compounds were tested over a concentration range of 10^−9M to 10^−5M for β3 cells and 10^−8 to 10^−4M for β1 and β2 transfected cells. Isoproterenol (10^−5M) was used as an internal standard for comparison of activity. Cells were incubated at 37° C. on a rocker for 30 min with the β3 cells and 15 min for β1 and β2 cells. Incubation was stopped with the addition of 0.2N HCl and neutralized with 2.5N NaOH. The plates, containing the cells and neutralized media, were stored at −20 degrees celsius until ready to test for cAMP using the SPA test kit (Amersham).
Data Analysis and Results: Data collected from the SPA test procedure were analyzed as per cent of the maximal isoproterenol response at 10^−5M. Activity curves were plotted using the SAS statistical and graphics software. EC50 values were generated for each compound and the maximal response (IA) developed for each compound is compared to the maximal response of isoproternol at 10^−5M from the following formula:
IA=% activity compound/% activity isoproterenol

For `CC(C)(C)c1nc(CS(=O)(=O)c2ccc(CCNC[C@H](O)COc3ccc(O)cc3)cc2)no1` [Example 15, 4-[((2S)-3-{[4-({[5-(tert-butyl)-1,2,4-oxadiazol-3-yl]methyl}sulfonyl)phenethyl]amino}-2-hydroxypropyl)oxy]phenol], the EC50 [1] was 28 nM and the “IA(β3)” value [1] was 0.92.
In the case of `COc1ccc(-c2nc(CS(=O)(=O)c3ccc(CCNC[C@H](O)COc4ccc(O)cc4)cc3)no2)cc1` [Example 29, 4[((2S)-2-hydroxy-3-{[4-({[5-(4-methoxyphenyl)-1,2,4-oxadiazol-3-yl]methyl}sulfonyl)phenethyl]amino}propyl)oxy]phenol], the EC50 [1] is reported as 33 nM and the “IA(β3)” value [1] is reported as 1.1.
With `COc1ccc(-c2nc(CS(=O)(=O)c3ccc(CCNC[C@H](O)c4ccc(O)c(NS(C)(=O)=O)c4)cc3)no2)cc1` [Example 27, N-[2-hydroxy-5-((1R)-1-hydroxy-2-{[4-({[5-(4-methoxyphenyl)-1,2,4-oxadiazol-3-yl]methyl}sulfonyl)phenethyl]amino}ethyl)phenyl]methanesulfonamide] the EC50 [1] was 25 nM and the “IA(β3)” value [1] was 1.
With `CC(C)(C)c1nc(CSc2ccc(CCNC[C@H](O)COc3ccc(O)cc3)cc2)no1` [Example 32, (2S)-4-(3-{2-[4-(5-tert-Butyl-[1,2,4]oxadiazol-3-ylmethylsulfanyl) -phenyl]-ethylamino}-2-hydroxy-propoxy)-phenol] the EC50 [1] was 330 nM and the “IA(β3)” value [1] was 1.2.
With `[O-][S+](Cc1noc(Cc2ccccc2)n1)c1ccc(CCNC[C@H](O)COc2ccc(O)cc2)cc1` (stereo partly drawn) [Example 24, 4-({(2S)-3-[(4-{[(5-benzyl-1,2,4-oxadiazol-3-yl)methyl]sulfinyl}phenethyl)amino]-2-hydroxypropyl}oxy)phenol] the EC50 [1] was 431 nM, the “IA(β3)” value [1] was 0.62 and the melting point was 51 to 57 °C.
In the case of `Cc1ccc(-c2noc(CSc3ccc(CCNC[C@H](O)COc4cccc5[nH]nnc45)cc3)n2)cc1` [Example 33, (2S)-1-(1H-1,2,3-benzotriazol-4-yloxy)-3-{[4-({[3-(4-methylphenyl)-1,2,4-oxadiazol-5-yl]methyl}sulfanyl)phenethyl]amino}-2-propanol], the EC50 [1] is reported as 789 nM, the “IA(β3)” value [1] is reported as 0.44 and the melting point is reported as 110 °C.
Work on `Cc1noc(C)c1-c1nc(CS(=O)(=O)c2ccc(CCNC[C@H](O)COc3ccc(O)cc3)cc2)no1` [Example 12, 4-[((2S)-3-{[4-({[5-(3,5-dimethyl-4-isoxazolyl)-1,2,4-oxadiazol-3-yl]methyl}sulfonyl)phenethyl]amino}-2-hydroxypropyl)oxy]phenol] yielded an EC50 [1] of 70 nM.
In the case of `COc1ccc(-c2nc(CS(=O)(=O)c3ccc(CCNC[C@H](O)COc4ccc(O)c(C)c4)cc3)no2)cc1` [Example 19, 4-[((2S)-2-hydroxy-3-{[4-({[5-(4-methoxyphenyl)-1,2,4-oxadiazol-3-yl]methyl}sulfonyl)phenethyl]amino}propyl)oxy]-2-methylphenol], the EC50 [1] is reported as 68 nM and the “IA(β3)” value [1] is reported as 0.95.
`O=S(=O)(Cc1noc(-c2ccccc2)n1)c1ccc(CCNCC(O)c2ccc(OC(F)(F)F)cc2)cc1` (stereo not drawn) [Example 8, 2-[(4{[(5-phenyl-1,2,4-oxadiazol-3-yl)methyl]sulfonyl}phenethyl)amino]-1-[4-(trifluoromethoxy)phenyl]-1-ethanol] gave a melting point of 125 to 127 °C.
